# Results taken from patent US20080299123A1, “TREATMENT OF CHEMOTHERAPY- OR RADIOTHERAPY-RESISTANT TUMORS” (Deutsches Krebsforschungszentrum Stiftung des offentlichen …, priority 2006, published 2008).
# “Also recorded” adds a separate entry of the source.
# Columns and labels:
# HEK293-hL1 cells [1] = assay: Induction of apoptosis, Nicoletti staining, in HEK293-hL1 cells; assay type: cell-based, human; details: L1 positive cells; cisplatin 17 μM
# Experimental: (§1) Cells (1×10^5 cells per well) were cultured in duplicate in 6 well culture plates and, after washing once with PBS, incubated for the indicated timepoints with or without apoptotic stimuli in serum-free medium. Staurosporine (2 μM), C2-ceramide (40 μM) or cisplatin (17 μM) were used as apoptotic reagents. For hypoxia studies, cells were incubated for different time points under hypoxic conditions (1% O2) using a Reming Bioinstruments chamber and oxygen regulator (Reming Bioinstruments, Redfield, N.Y.).
# (§2) For quantification of DNA fragmentation, supernatants were centrifuged at 200×g. The cell pellet was washed once in PBS (pH 7.4) and lysed in a hypotonic lysis buffer (0.1% sodium citrate, 0.1% Triton X-100, 50 μg/ml propidiumiodite) at 4° C. overnight. The nuclei were then analyzed for DNA content by flow cytometry. The staining of cells for flow cytometry with mAbs and PE-conjugated secondary antibodies has been described. Cells were analysed with a FACScan using Cellquest or FlowJo software from Becton Dickinson (Heidelberg, Germany).
# HEK293 cells [2] = assay: Induction of apoptosis, Nicoletti staining, in HEK293 cells; assay type: cell-based, human; details: L1-negative cells; cisplatin 17 μM
# Experimental: as §1, §2
# m130 cells = assay: Long-term cisplatin treatment of m130 cells; assay type: cell-based
# Experimental: (A) Light microscopy of cisplatin treated and no-treated m130 cells. Note the more elongated morphology after treatment for 3 weeks. The bar represents 10 μm. (B) FACS analysis of cisplatin treated m130 cells with mAb L1-11A against human L1-CAM. The analysis was carried out as described in FIG. 1. (C) Western blot analysis of cell lysate from cisplatin treated on non-treated m130 cells. (D) FACS analysis of cisplatin treated SW707 colon carcinoma cells with mAb L1-11A against human L1-CAM.
# We studied whether long-term cisplatin treatment of L1-negative m130 cells would augment L1 expression. M130 cells were treated cells with increasing amounts of cisplatin over a time period of 3 weeks (10 μM first week, 15 μM second week, 20 μM third week).
# OVMz = details: L1 high expressing cell line OVMz; previous work [29]; read-out: IC50 for cisplatin; cited from earlier work
# m130 = details: L1 negative cell line m130; previous work [29]; read-out: IC50 for cisplatin; cited from earlier work
# L1 = assay: siRNA-mediated knockdown of L1 in OVMz cells (FACS, Western blot); assay type: cell-based, human; details: 48 hours after transfection
# Experimental: (A) OVMz cells were transfected with L1-specific siRNA or control siRNA. After 48 hrs, cells were stained with mAb L1-11A to L1 followed by PE-conjugated anti-mouse IgG antibody and subjected to FACS analysis. (B) Cell lysates were analyzed by Western blot analysis using antibodies to the L1 ectodomain (mAb L1-11A) or the cytoplasmic portion (pcytL1). The L1-32 fragment is the ADAM10-mediated ectodomain cleavage fragment.
# as §2
# (§3) SDS-PAGE under reducing conditions and transfer of separated proteins to Immobilon membranes using semi-dry blotting was described before. […] Eluted fractions were neutralized and an aliquot of the samples was analyzed by SDS-PAGE. […]
# Transfection of siRNAs was described before. […] Cells were transfected with annealed siRNAs using Oligofectamine (Life Technologies) and analyzed after the indicated time points.
# [3] = tested on: ERK and FAK phosphorylation; assay: Phosphorylation of ERK and FAK in L1-depleted OVMz cells; assay type: cell-based
# Experimental: (C) Phosphorylation of ERK1/2, FAK, and PAK 1 was analyzed in L1-siRNA depleted cell. (D and E) analysis of apoptosis by Nicoletti staining.
# (§4) SDS-PAGE under reducing conditions and transfer of separated proteins to Immobilon membranes using semi-dry blotting was described before. After blocking with 5% skim milk in TBS, the blots were developed with the respective primary antibody followed by peroxidase conjugated secondary antibody and ECL detection. The isolation and characterization of soluble L1 from ascites fluid was described before. Briefly, the vesicle cleared ascites fluid from ovarian carcinoma patients was adsorbed to Sepharoselinked mAb L1-11A and bound L1 was eluted with 0.1 M Glycin/HCl buffer pH 2.8. Eluted fractions were neutralized and an aliquot of the samples was analyzed by SDS-PAGE. Cell pellets were lysed in lysis buffer (20 mM Tris/HCl pH 8.0 containing 1% Triton X-100, 150 mM NaCl, 1 mM PMSF), cleared by centrifugation and mixed with two fold-concentrated reducing SDS-sample buffer.
# (§5) Transfection of siRNAs was described before. L1 (5′-AGGGAUGG-UGUCCACCUUCAAAUU-3′) siRNA (SEQ ID NO: 1) was synthesized by MWG-Biotech (Ebersberg, Germany). Cells were transfected with annealed siRNAs using Oligofectamine (Life Technologies) and analyzed after the indicated time points.
# OVMz cells = assay: Apoptosis by Nicoletti staining in siRNA transfected OVMz cells; assay type: cell-based; details: compared to control siRNA treated cells
# Experimental: as §1, §2, §5
# HEK293-hL1wt cells = assay: Haptotactic cell migration on fibronectin, HEK293-hL1wt; assay type: cell-based, human; details: MEK inhibitor at 20 μM
# Experimental: (A) L1 processing and cleavage in transfected HEK293 cells. The cell lysates were analyzed by Western blot with pcyt-L1 recognizing the cytoplasmic portion of L1. The nomenclature of L1-cleavage fragments is according to a previous publication (Mechtersheimer et al, 2001). (B) ELISA analysis. Soluble L1 levels in the medium of HEK293-hL1wt or HEK293-hL1mutTS cells treated with or without PMA stimulation for 1 h at 37° C. was analyzed. Lysates from both cell lines were used as positive controls. (C) Stimulation of cell migration on fibronectin by recombinant L1-Fc. The fusion protein was added at the final concentration of 0.6 μg/ml. […] (E) Phosphorylation of ERK1/2, FAK, PAK 1 and Src was analyzed in HEK293, HEK293-hL1wt and HEK293-hL1mutTS cells grown in serum. […] Labelled proteins were detected by autoradiography.
# (A) HEK293 cells or HEK293-hL1wt cells were transfected transiently with plasmids (10 μg DNA) encoding hL1mut, dominant-negative ADAM10 (ADAM10-DN) or empty pcDNA3 vector. […] 48 h after transfection, cells were analyzed for haptotactic cell migration on fibronectin. […] 48 h after transduction with hL1wt or hL1mutTS adenovirus or YFP-TM adenovirus for control, KS cells or the L1 positive ovarian carcinoma cells OVMz, SKOV3ip and MO68 were analyzed for haptotactic cell migration on fibronectin as described in the legend to FIG. 1. […]
# HEK293 cells [4] = assay: Soluble L1 rescue from staurosporine induced apoptosis, HEK293; assay type: cell-based, human; details: staurosporine 12 hours, purified soluble L1 10 μg/ml
# Experimental: (§6) (A) HEK293 and HEK293-hL1 cells were treated with staurosporine for the indicated length of time in the presence or absence of purified soluble L1 (10 μg/ml). Cell survival was determined by Nicoletti staining. (B) Analysis of FAK phosphorylation in HEK293 cells after the addition of soluble L1.
# as §1
# (§7) For quantification of DNA fragmentation, supernatants were centrifuged at 200×g. […] The nuclei were then analyzed for DNA content by flow cytometry. […] Cells were analysed with a FACScan using Cellquest or FlowJo software from Becton Dickinson (Heidelberg, Germany).
# as §3
# HEK293-hL1 cells [5] = assay: Soluble L1 rescue from staurosporine induced apoptosis, HEK293-hL1; assay type: cell-based, human; details: staurosporine 12 hours, purified soluble L1 10 μg/ml
# Experimental: as §6, §1, §7, §3
# FAK phosphorylation = FAK phosphorylation in HEK293 cells after addition of soluble L1; assay type: cell-based, human; details: addition of soluble L1 to HEK293 cells
# Experimental: as §6, §4
molecule,measurement,setting,value
"N.N.[Cl][Pt][Cl] [cisplatin, cis-Diammineplatinum(II) dichloride]",cells survived the treatment with cisplatin,HEK293-hL1 cells [1],Approximately 70%
same,cells survived the treatment with cisplatin,HEK293 cells [2],40%
same,expression of L1,"m130 cells; cisplatin 3 weeks (10, 15, 20 μM), FACS and Western Blot",strongly enhanced
same,cell proliferation,"m130 cells; long-term cisplatin treatment, data not shown",clearly decreased cell proliferation
same,IC50,OVMz,> 14 µM
same,IC50,m130,7 µM
"L1-specific siRNA: L1 siRNA 5′-AGGGAUGG-UGUCCACCUUCAAAUU-3′ (SEQ ID NO: 1), synthesized by MWG-Biotech",L1 expression at the cell surface,L1,downregulation of L1 expression at the cell surface
same,phosphorylation of ERK and FAK,[3],no significant reduction
same,sensitivity to apoptosis induced by cisplatin or staurosporine,OVMz cells,significantly enhanced
COc1cccc(-c2cc(=O)c3ccccc3o2)c1N [PD59098],cell migration,HEK293-hL1wt cells,Inhibition of cell migration was also observed
"soluble L1: soluble L1 ectodomain isolated from ascites fluid of ovarian carcinoma patients (protein, UniProt P32004 20-1120, looked up, extracellular domain, soluble L1 ectodomain isolated from ascites fluid of ovarian carcinoma patients) extracellular domain: IQIPEEYEGHHVMEPPVITEQSPRRLVVFPTDDISLKCEASGKPEVQFRWTRDGVHFKPKEELGVTVYQSPHSGSFTITGNNSNFAQRFQGIYRCFASNKLGTAMSHEIRLMAEGAPKWPKETVKPVEVEEGESVVLPCNPPPSAEPLRIYWMNSKILHIKQDERVTMGQNGNLYFANVLTSDNHSDYICHAHFPGTRTIIQKEPIDLRVKATNSMIDRKPRLLFPTNSSSHLVALQGQPLVLECIAEGFPTPTIKWLRPSGPMPADRVTYQNHNKTLQLLKVGEEDDGEYRCLAENSLGSARHAYYVTVEAAPYWLHKPQSHLYGPGETARLDCQVQGRPQPEVTWRINGIPVEELAKDQKYRIQRGALILSNVQPSDTMVTQCEARNRHGLLLANAYIYVVQLPAKILTADNQTYMAVQGSTAYLLCKAFGAPVPSVQWLDEDGTTVLQDERFFPYANGTLGIRDLQANDTGRYFCLAANDQNNVTIMANLKVKDATQITQGPRSTIEKKGSRVTFTCQASFDPSLQPSITWRGDGRDLQELGDSDKYFIEDGRLVIHSLDYSDQGNYSCVASTELDVVESRAQLLVVGSPGPVPRLVLSDLHLLTQSQVRVSWSPAEDHNAPIEKYDIEFEDKEMAPEKWYSLGKVPGNQTSTTLKLSPYVHYTFRVTAINKYGPGEPSPVSETVVTPEAAPEKNPVDVKGEGNETTNMVITWKPLRWMDWNAPQVQYRVQWRPQGTRGPWQEQIVSDPFLVVSNTSTFVPYEIKVQAVNSQGKGPEPQVTIGYSGEDYPQAIPELEGIEILNSSAVLVKWRPVDLAQVKGHLRGYNVTYWREGSQRKHSKRHIHKDHVVVPANTTSVILSGLRPYSSYHLEVQAFNGRGSGPASEFTFSTPEGVPGHPEALHLECQSNTSLLLRWQPPLSHNGVLTGYVLSYHPLDEGGKGQLSFNLRDPELRTHNLTDLSPHLRYRFQLQATTKEGPGEAIVREGGTMALSGISDFGNISATAGENYSVVSWVPKEGQCNFRFHILFKALGEEKGGASLSPQYVSYNQSSYTQWDLQPDTDYEIHLFKERMFRHQMAVKTNGTGRVRLPPAGFATE",cell survival,HEK293 cells [4],enhanced survival of both cell lines to a similar degree; also recorded: only partially rescue HEK293 cells from apoptosis
same,cell survival,HEK293-hL1 cells [5],enhanced survival of both cell lines to a similar degree
same,FAK phosphorylation,FAK phosphorylation,enhanced FAK phosphorylation
